Series [1] deals with hHO-1 transfected primary rat astroglial cultures. The series can be described thus: Protein carbonyl ELISA in hHO-1-transfected primary rat astroglia (whole-cell and mitochondrial compartments). Type of series: cell-based. As to the method:
Cells were grown in Ham's F12 and high glucose DMEM (50:50 v/v) supplemented with 10 mM HEPES, 5% heat-inactivated horse serum, 5% heat-inactivated fetal bovine serum, and penicillin-streptomycin (50 U/mL and 50 μg/mL, respectively).
Upon reaching >90% confluence, 1×10^6 cells were transiently transfected with 4.0 μg of plasmid DNA-Lipofectamine 2000 complex using Lipofectamine 2000 method according to manufacturer instructions (Invitrogen). […] 12 μg of plasmid DNA and 16 μl of Lipofectamine 2000 reagent were diluted in 1.5 mL opti-MEM I reduced serum medium and incubated for 5 minutes at room temperature with gentle mixing. The two solutions were combined, incubated at room temperature for 20 minutes to promote formation of DNA-lipid complexes and administered to the cells. 2 mL opti-MEM I reduced serum medium was added to the flasks to ensure coverage of the monolayer by the transfection mixture. Following incubation for 6 hours at 37° C., the transfection mixture was replaced with 10 mL of complete media without antibiotics.
The cells were sonicated (Sonics & Materials, Danbury, Conn.) at a power level of 50 for 3×20 s in a cooled water bath. […] Whole-cell and mitochondrial preparations were assayed for protein carbonyls as described below.
Protein carbonyls were reacted with 2,4-dinitrophenylhydrazine (DNP) and the hydrazone adducts were detected with anti-DNP antisera. Quantification was achieved by comparison with oxidized BSA standards. Oxidized (carbonylated) BSA was prepared by reacting natural BSA (at 50 mg/mL in PBS) with hypochlorous acid (5 mM) for 1 h at 37° C., followed by overnight dialysis against PBS at 4° C. […] The pellet was resuspended in 2 mL of same buffer, sonicated on ice 2×15 s at 20 W and centrifuged for 20 min at 4° C. at 1,303×g. Protein concentration of supernatant was measured with the RC DC protein assay based on the Lowry protocol (Bio-Rad Laboratories, Hercules, Calif.). All samples were adjusted to 4.0 mg protein/mL. […] Five microliters aliquots of each reaction mixture were mixed with 1 mL PBS and 200 μL replicates were added per well to 96-well immunoplates and incubated overnight at 4° C. After washing with PBS, nonspecific binding sites were blocked with 0.1% Tween 20 in PBS. […] A 6-point standard curve of reduced and oxidized BSA was generated for each plate analyzed. Specific absorbance for each sample was calculated by subtracting basal absorbance of the DNP reagent from the total absorbance.
(In general: ELISA stands for enzyme-linked immunosorbent assay.)

Series [2] has as its system SKMEL-V+ tumors (blood vessels, CD31 positive cells). The series can be described thus: CD31 / H&E staining, microvessel density of SKMEL-V+ tumors. The class given is in vivo, mouse. As to conditions: SKMEL-V+ tumors from treated mice; hydrochloride. The method, then:
SKMEL-V (human melanoma cells). SKMEL-V cells were derived from SKMEL-24 cells (ATCC) by overexpression of mouse VEGF. […] Tumors were either snap frozen in liquid nitrogen or fixed in 10% buffered formalin and embedded in paraffin. […] BD PharMingen, San Diego, Calif.). […] Sections were rehydrated in PBS and then blocked with 5% normal goat serum for 1 h. The sections were then incubated overnight at 4° C. with CD31 antibody diluted 1:25 in 3% BSA-PBS. […] Paraffin-embedded material was used for Harris' hematoxylin. Microvessel density was quantified using a method described by Weidner et al ([…], and Folkman […]. Med, 1991; 324:1-8). Briefly, randomly vascularized areas were selected (hot spots) under 40× field and 100× fields. Then a 400× field was used to count microvessels in each of these areas. Single endothelial cells or clusters of endothelial cells with or without lumen were considered to be individual vessels. […] All slides were examined blindly with no prior knowledge of the treatment status.

Series [3] can be described thus: Pharmacokinetic evaluation of QC-56 in mouse brain. Type of series: in vivo. The note with it: brain tissue, i.v. tail vein injection. The text has this:
Regular male CD1 mice, 6 weeks old, were obtained from Charles River Laboratories, St. Zotique, PQ, Canada. The mice weighed 22-28 g. The experiments were approved by the Animal Care Committee, McGill University, Montreal, Quebec. The animals were housed in individual cages and were fed standard rodent chow and water ad libitum. […] In this case, mice were anesthetized using isoflurane-based system (DISPOMED, MODUFLEX COMPACT NRB, 3975-0800-000). […] Serum was collected after the samples were centrifuged 2200×, 4° C. for 20 minutes and stored at −80° C. until analysis. For the brain tissue collection, skin of mice was removed and brain was carefully dissected out from the skull, transferred into a Petri dish, briefly washed with ice-cold phosphate-buffered saline (PBS), and immediately stored at −80° C. until further analysis.
The assay of QC-56 in mouse brain samples was carried out using a qualified LC/MS/MS assay method.

The text below walks through data of patent US20140155445A1, “Compounds and Methods for Treating Cancer and Diseases of the Central Nervous System” (Osta Biotechnologies Inc., priority 2007, published 2014).

One may read the Cmax as the highest concentration seen after dosing.

SMILES strings stand for the structures. “Also recorded” adds a separate entry of the source. Read-outs that look alike come from different tables or passages of the source.

Regarding `Brc1ccc(CCC2(Cn3ccnc3)OCCO2)cc1.Cl` [QC-56, 1-((2-(2-(4-Bromophenyl)ethyl)-1,3-dioxolan-2-yl)methyl)-1H-imidazole hydrochloride], the “oxidative protein damage (protein carbonyls) accruing from hHO-1 transfection” value in series [1] (6.5 μM) was “significantly attenuated”. Besides, the “dose dependence of attenuation of oxidative protein damage” value in series [1] (transiently transfected rat astroglia, hydrochloride) is “significant dose dependant attenuations; also recorded: in a dose dependent manner significantly decreased; also recorded: significant dose-dependant attenuations”. The “tumor vascularization (vessel count, size, CD31)” value in series [2] is “significant reduction in the density of blood vessels; also recorded: significant reduction in vascularization; also recorded: significant decrease in the size and number of blood vessels”. In addition, the “time of maximal brain concentration” value in series [3] turned out to be 1 min. Further, in series [3] (male CD-1 mice), the “AUC0→3 hrs” value worked out at 60.3 µg·h/g, the “AUC0→inf” value amounted to 158 µg·h/g and the “T1/2z” value stood at 4.30 h. Moreover, in series [3] (male, CD-1, mouse, iv, read-out: brain concentration at 180 min post-dose), the concentration at 180 min was 15800 ± 800 ng/g. Moreover, the Cmax in series [3] (mouse, iv, male CD-1 mice) was 50200 ± 3200 ng/g. In addition, the tolerability result (50 mg/kg, multiple administrations) was “well tolerated”. Further, under “QC-56 60 mg/kg i.p. 4 cycles, chemotherapy drugs i.p.”, the “toxicity in combination studies” value is recorded as “No apparent toxicity”. In addition, the tolerability entry (multiple doses up to 100 mg/kg (intraperitoneal, intravenous), hydrochloride) is listed as “well tolerated with no apparent signs of toxicity; also recorded: well tolerated”. In addition, the tolerability entry (repeated doses of 30 and 60 mg/kg i.p., SCID mice, hydrochloride) is “well tolerated at repeated doses of 30 and 60 mg/kg with minor changes in body weights with no apparent toxicity; also recorded: well tolerated”. For the same molecule, the toxic single dose (single intraperitoneal dose, SCID mice) is on record as more than 100 mg/kg.
